A word on the EC50: it is the concentration giving half of the maximal effect. A word on the IC50: it is the concentration that gives 50% inhibition.

The record followed here is PubChem BioAssay AID179 (DTP/NCI, 2004).

The test relates to CEM cells HIV-1 protection, formazan growth assay. Put plainly: NCI AIDS Antiviral Assay. The following applies: for IC50: measured here: growth of uninfected CEM cells. In outline: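 Five concentrations of each compound were applied to infected and uninfected human CEM cells. Protection from HIV-1 was judged from growth measured with a soluble formazan assay.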

Several values for one entry are separate records, joined by “and”; a condition that tells them apart may be missing. Equal entries are not always repeated. Activity calls are given as the source filed them.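 The calls were made as follows: active = compounds giving half or more protection of infected cells from virus-caused growth loss, again on retest; inactive = the rest.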 Where a SMILES comes first, the peptide text is derived from it.

Turning to `CC(=O)OC1C2CCC3CC2C2(SCCS2)C31` (centres undefined), the EC50 is greater than 200 µM and the IC50 was greater than 200 µM.

On to `Cc1nc(C(=O)O)c(C(=O)O)[nH]1`, for which the EC50 was greater than 200 µM and the IC50 is greater than 200 µM. For `O=C1NC(Cc2ccc(Cl)cc2)C(=O)N2CCCC12` (centres undefined), the EC50 is greater than 200 µM and the IC50 amounted to 95.5 µM. On to `C=CCP(c1ccccc1)c1ccccc1`, for which the EC50 is 0.0631 µM and the IC50 is greater than 200 µM. For the compound `CN1CC(=O)Nc2c(ncn2C2OC(CO)C(O)C2O)C1=O` (centres undefined), the EC50 was greater than 229 µM and the IC50 is greater than 229 µM.

As to `O=C(OCCN1CCCCC1)c1cc2ccccc2n1-c1ccccc1`, the EC50 was greater than 200 µM and the IC50 amounted to 97.7 µM.

Consider `CCC(=O)NC(Nc1cccc(F)c1)(C(F)(F)F)C(F)(F)F`, for which the EC50 was greater than 200 µM and the IC50 is greater than 200 µM. Consider `O=C1c2ccccc2C2C1C(c1ccccc1)C1(Cc3ccccc3C1=O)C2c1ccccc1` (centres undefined), for which the EC50 was greater than 200 µM and the IC50 was 38.9 µM. `CCOC(=O)CC(C)CCO` (centres undefined): the EC50 is greater than 1550 µM and the IC50 was greater than 1550 µM. Take `Cc1nnc2sc(C(=O)O)nn12`: the EC50 is greater than 200 µM and the IC50 is greater than 200 µM. For `Cc1c2c(n(CCc3ccccc3)c1C)N(C)N=C(C#N)S2(=O)=O`, the EC50 was greater than 200 µM and the IC50 was greater than 200 µM. `CCC1c2ccc3cc(OC)ccc3c2CCC1(C)C(=O)O` (centres undefined): the outcome was inactive. `O=C1CCCC1C(O)(C(F)(F)Cl)C(F)(F)Cl` (centres undefined): the EC50 is greater than 200 µM and the IC50 was greater than 200 µM. As for `Oc1ccccc1C=Nc1ccccc1SSc1ccccc1N=Cc1ccccc1O`, the EC50 was greater than 200 µM and the IC50 came out at 8.13 µM. In the case of `CN(C)CC1CCCC(CN(C)C)C1O` (centres undefined), the EC50 is greater than 871 µM and the 50% inhibitory concentration (IC50) was greater than 871 µM. For the compound `N#C/C(=C/N1C(=O)CC(=O)NC1=S)c1cccc(Cl)c1`, the EC50 was 182 µM and the IC50 is greater than 200 µM. Consider `COC(=O)C12C3C4C1C1C2C3C41C(=O)N(C(C)C)C(C)C` (centres undefined), for which the EC50 is greater than 871 µM and the IC50 was greater than 871 µM. `O=C(NNC(c1ccccc1)C(F)(F)F)c1ccncc1` (centres undefined): the EC50 was greater than 200 µM and the IC50 was greater than 200 µM. With `Cc1c(C)c2c(c(N)c1C#N)C(=O)N(OS(=O)(=O)c1ccccc1)C2=O`, the EC50 is greater than 151 µM and the IC50 amounted to 25.7 µM. Take `O=C(NNC1=NCCCCN1)Nc1ccc(Cl)cc1`: the EC50 was 107 µM and the IC50 is greater than 200 µM. Consider `CCn1c2ccccc2c2c(-c3ccccc3)cc3c(c21)C(=O)N(c1ccccc1)C3=O`, for which the EC50 is greater than 6.61 µM and the IC50 was greater than 6.61 µM. For `CCOC(=O)C(NC(=O)CC)(Nc1ccc(F)cc1F)C(F)(F)F` (centres undefined), the EC50 is greater than 200 µM and the IC50 was greater than 200 µM. As to `CCOc1cnn(-c2ccccc2)c(=O)c1Cl`, the EC50 was greater than 1000 µM and the IC50 was found to be 437 µM. In the case of `Oc1ccc2c(c1)OCC1c3ccccc3OC21` (centres undefined), the result was inactive. As to `Clc1cc(Cl)cc(C=NC23CC4CC(CC(C4)C2)C3)c1`, the EC50 is greater than 200 µM and the IC50 is 44.7 µM.

Consider `CC(=O)OCCCC(NC(=O)OC(C)(C)C)C(=O)NC(CCCOC(C)=O)C(=O)NC(Cc1ccc([N+](=O)[O-])cc1)C(=O)NCC(=O)OCc1ccccc1` (centres undefined), for which the EC50 was greater than 200 µM and the IC50 stood at 16.2 µM. As for `Cc1ccc2oc3ccccc3c(=O)c2c1`, the EC50 was greater than 24.5 µM and the IC50 was greater than 24.5 µM. In the case of `OCC1OC2c3ccccc3COC2C1OCc1ccccc1` (centres undefined), the result was inactive. As to `CCCCCCCCCCCCOS(=O)(=O)O`, the EC50 was greater than 871 µM and the IC50 was determined as 195 µM. As to `N#CC(/C(CCCC(=O)Nc1cccc([N+](=O)[O-])c1)=N\NC(=O)c1c(O)ccc2ccccc12)c1nc2ccccc2s1` (centres undefined), the result was inactive. For `Cc1cc(Br)ccc1N=Nc1c(C)noc1-c1ccccc1`, the outcome was inactive. For the compound `COc1ccc(-c2nnc3n(Cc4ccccc4)c4ccccc4n3c2=O)cc1`, the EC50 is greater than 200 µM and the IC50 was greater than 200 µM. Regarding `C=CCCCC1(C)CCCCNC1=O` (centres undefined), the EC50 was 186 µM and the IC50 was greater than 200 µM. As to `C=C1c2[nH]c3ccccc3c2CC(C(=O)O)N1C(O)c1ccc(S(=O)(=O)O)cc1` (centres undefined), the outcome was inactive. Regarding `O=C1C(=O)c2ccccc2C(O)=C1C(C1=C(O)c2ccccc2C(=O)C1=O)c1ccc(Cl)c(Cl)c1`, the EC50 is greater than 200 µM and the IC50 was 18.6 µM. Taken in the same sequence, the figures for `COc1ccc2c(c1)c(=O)c1c(NCCN(C)C)ccc3c(=O)n(CCN(C)C)c(=O)n2c31` were 0.0204 µM and 0.0324 µM. Taken in the same sequence, the figures for `COc1ccccc1/C=C(\NC(=O)c1ccccc1)c1nc2ccccc2[nH]1` were greater than 97.7 µM and 47.9 µM. Taken in the same sequence, the figures for `N#C/C(=C\c1ccc(Br)cc1)c1nc(-c2cc3ccccc3oc2=O)cs1` were 83.2 µM and greater than 100 µM.

Consider `CCN1C(=O)C(N2CCCCC2)S/C1=C\C(=O)O` (centres undefined), for which the EC50 was greater than 933 µM and the IC50 was 457 µM.

For `COc1ccc(OC)c(C(=O)/C=C\C(=O)O)c1`, the EC50 was greater than 219 µM and the IC50 was 24.5 µM.

With `CC(C)CC(NC(=O)C(Cc1ccc(O)cc1)NC(=O)C1CCCN1C(=O)C(NC(=O)C(CO)NC(=O)C(CCCCN)NC(=O)C(NC(=O)C(N)CCC(=O)O)C(C)C)C(C)O)C(=O)NC(CO)C(=O)NC(CCCCN)C(=O)O` (centres undefined) (H-EVKSTPYLSK-OH; configuration not given here), the result was inactive.

As for `COc1ccccc1/C=C1/Sc2scc(CC(=O)Nc3ccccc3)[n+]2C1=O`, the outcome was inactive and the IC50 worked out at 28.8 µM. For the compound `CCOc1ccc2nc3nc(=O)[nH]c(C)c3c(NC(C)(CO)CO)c2c1`, the EC50 is greater than 200 µM and the IC50 is greater than 200 µM.

`CC(C)=CCC[C@@H](C)C1[C@@H](OC2OC(CO)C(O)C(O)C2O)CC2(C)[C@@H]3CC(=O)C4C(C)(C)[C@@H](OC5OC(CO)C(O)C(O)C5O)CC[C@@]45C[C@@]35CC[C@]12C` (some centres undefined): the EC50 is greater than 33.1 µM and the IC50 worked out at 31.6 µM. Consider `CCCCCC1=CC(=O)C=C(OC)C12C(=O)Oc1cc(O)c(C(=O)O)c(CCCCC)c12` (centres undefined), for which the EC50 is greater than 562 µM and the IC50 was 77.6 µM.

Turning to `CC(=O)N1CC2(CN(C(C)=O)CC3(C1)OCCO3)OCCO2`, the EC50 was greater than 200 µM and the IC50 was greater than 200 µM. Take `O=C(NCCCN(CCCCN(CCCNC(=O)c1cc(S(=O)(=O)O)cc(O)c1O)C(=O)c1cc(S(=O)(=O)O)cc(O)c1O)C(=O)c1cc(S(=O)(=O)O)cc(O)c1O)c1cc(S(=O)(=O)O)cc(O)c1O`: the EC50 was greater than 200 µM and the IC50 is 72.4 µM. For the compound `c1ccc2c(c1)oc1ccc3nsnc3c12`, the EC50 is greater than 15.8 µM and the IC50 was greater than 15.8 µM. As for `Cc1ccc(-c2cc(-c3ccco3)c(C#N)c(=S)n2C2OC(CO)C(O)C(O)C2O)cc1` (centres undefined), the EC50 was greater than 200 µM; the half-maximal inhibitory concentration (IC50) is 9.33 µM and 57.5 µM.

With `CCN(CC)C(C)(C)C(=O)/C=C/c1ccc(C)cc1`, the outcome was inactive. Turning to `O=C(CCc1ccccc1)n1cccc1CO`, the EC50 is greater than 200 µM and the IC50 was determined as 56.2 µM. For the compound `COc1c2cc([N+](=O)[O-])cc1CNC(=O)CN1CCOCCOCCN(CCOCCOCC1)CC(=O)NC2`, the EC50 was greater than 100 µM and the IC50 is greater than 100 µM.

For the compound `CN1CCN(CC(=O)N2CCCn3c2nc2ccccc2c3=O)CC1`, the EC50 was greater than 200 µM and the IC50 is greater than 200 µM. For the compound `CN(C)C1=c2c(=O)n(C)c(=O)n(C)c2=NC2C=CC=CN12` (centres undefined), the EC50 was greater than 174 µM and the IC50 is greater than 174 µM. In the case of `CN1C(=O)CC(Sc2ccccc2)c2cc(Cl)ccc21` (centres undefined), the EC50 is greater than 200 µM and the IC50 amounted to 15.8 µM. Taken in the same sequence, the figures for `CCOC(=O)c1cc(/C=C/C(C)=C/C(=O)OC)n(C)c1C` were greater than 24.5 µM and greater than 24.5 µM.

Regarding `CC(=O)NNC(=S)N/C=C\c1nc2ccccc2[nH]c1=O`, the EC50 was greater than 200 µM and the IC50 is greater than 200 µM. For the compound `CC(C)(C)[Si](C)(C)OCC1OC(n2cnc3c(=O)[nH]c(N)nc32)C(O[Si](C)(C)C(C)(C)C)C1O[Si](C)(C)C(C)(C)C` (centres undefined), the EC50 is greater than 200 µM and the IC50 worked out at 4.17 µM. Take `CNC(=S)N/N=C/c1cccc(C)n1`: the EC50 is greater than 200 µM and the IC50 was 19.5 µM. For the compound `CCOC(=O)/C(C#N)=C/c1ccc(CO)o1`, the EC50 was greater than 200 µM and the IC50 is greater than 200 µM. Regarding `N#CCc1ccccc1C(=O)O`, the EC50 was greater than 1550 µM and the IC50 was 891 µM. On to `CCOc1ccccc1N=Nc1c(-c2ccccc2)nn(C(=O)CC(=O)Nc2cccc(Cl)c2)c1-c1ccccc1`, for which the EC50 is greater than 45.7 µM and the IC50 is greater than 45.7 µM.

With `CN(C)CCCN=C(N)N`, the EC50 was greater than 200 µM and the IC50 was greater than 200 µM. In the case of `O=C1Cn2c(cc(=O)c3ccccc32)O1`, the EC50 was greater than 67.6 µM and the IC50 is greater than 67.6 µM.

For the compound `C[N+](C)(C)CC(=O)N/N=C(/CC1OC(=O)c2ccccc21)c1ccccc1O` (centres undefined), the EC50 was greater than 120 µM and the IC50 came out at 77.6 µM. Turning to `COC(=O)Cn1c(=O)oc2nc(-c3ccccc3)cc(C(F)(F)F)c21`, the EC50 is greater than 200 µM and the IC50 came out at 129 µM.

On to `COc1ccc(-c2coc3c4c(c(CC=C(C)C)c(O)c3c2=O)OC(C)(C)C=C4)cc1OC`, for which the EC50 is greater than 100 µM and the IC50 is greater than 100 µM.

With `CCOC(=O)c1cn(-c2ccccc2)c(=S)n2c1nc1ccccc12`, the EC50 was greater than 200 µM and the IC50 came to 7.59 µM. For `O=C1NC2OC(CO)C(O)C(O)C2O1` (centres undefined) the same measures were greater than 200 µM and greater than 200 µM. For `CC1(C)C2CCC3=C(CCC4(C)C5C[C@](C)(C(=O)O)CC[C@]5(C)CC[C@]34C)[C@@]2(C)CC[C@@H]1O` (some centres undefined) the same measures were 24 µM and 81.3 µM. For `C=C1c2c(Cl)ccc(O)c2C(O)=C2C(=O)C3(O)C(O)=C(C(N)=O)C(=O)C(N(C)C)C3C(O)C12` (centres undefined), the EC50 was greater than 200 µM and the IC50 worked out at 11 µM.
